Laboratory results reported in patent EP4768499A1, “MACROCYCLIC PEPTIDE COMPOUND HAVING CELL MEMBRANE PERMEABILITY AND METABOLIC STABILITY, AND LIBRARY CONTAINING SAME” (Chugai Seiyaku Kabushiki Kaisha, priority 2023, dated 2025).
Starred links: 1 amine or outer side, 2 acyl side, 3 side chain; linkers in the order of their positions; H or OH if unused. Positions of bridges follow the written chain, without caps; N, C: chain ends. Non-standard residues stand in square brackets, D forms with d. Residues, ends and D or L forms follow the SMILES beside them. *: point of attachment. NMedβ3hAla = C[C@H](CC(=O)[*:2])N(C)[*:1]; NMeF = CN[C@@H](Cc1ccccc1)C(=O)O; NMeI = CC[C@H](C)[C@H](NC)C(=O)O; NMeT = CN[C@H](C(=O)O)[C@@H](C)O; hPhe = N[C@@H](CCc1ccccc1)C(=O)O; NMeβAla = CN(CCC(=O)[*:2])[*:1]; NMeD = CN[C@@H](CC(=O)O)C(=O)O; NMeL = CN[C@@H](CC(C)C)C(=O)O; NMeV = CN[C@H](C(=O)O)C(C)C; NMeAbu = CC[C@H](NC)C(=O)O; NMeA = CN[C@@H](C)C(=O)O; Piperidide = C1CCN(*)CC1; Abu = CC[C@H](N)C(=O)O; NBuGly = CCCCNCC(=O)O; Sar = CNCC(=O)O; tBu = CC(C)(C)*

Columns and labels:
[1] = Metabolic stability test: liver microsomal stability assay; assay type: in vitro ADME, mouse; conditions: mouse liver microsomes 0.5 mg protein/mL, compound 1 µM; for microsomal CLint at 1 µM: male, pH 7.4, presence of NADPH, read-out: Mouse Hepatic Microsome CLh,int NADPH(+); for Mouse Hepatic Microsome CLh,int NADPH(-): absence of NADPH
Caco-2 cells = experiment: Membrane permeability test using Caco-2 cells with preincubation; assay type: in vitro ADME; conditions: Caco-2 cells, preincubation 20 to 24 hours; apical FaSSIF/HBSS 1% DMSO pH 6.0, basal HBSS 4% BSA pH 7.4; basal sample at 180 minutes
[2] = as above; assay type: in vitro ADME; conditions: Caco-2; preincubation 20 to 24 hours; Apical FaSSIF/HBSS pH 6.0, Basal HBSS 4% BSA pH 7.4; 180 minutes; read-out: Caco2 Papp

Row | microsomal CLint at 1 µM [1] [µL/min/mg] | Mouse Hepatic Microsome CLh,int NADPH(-) [1] [µL/min/mg Protein] | Caco2 Papp (10^-6 cm/sec) (Caco-2 cells) | Papp A→B [2] [×10⁻⁶ cm/s] | SMILES
1 | 36 | 36.2 | 0.20 10^-6 cm/sec | 0.2 | CC[C@H](C)[C@@H]1NC(=O)[C@H](CC(C)C)N(C)C(=O)[C@H](CC(C)C)NC(=O)[C@H](C)N(C)C(=O)C[C@@H](C(=O)N2CCCCC2)NC(=O)[C@H](CC(C)C)NC(=O)[C@@H]2CCCN2C(=O)[C@H](CC(C)C)N(C)C(=O)[C@H]([C@@H](C)O)NC(=O)[C@H]([C@@H](C)CC)N(C)C(=O)[C@H](Cc2ccccc2)N(C)C(=O)[C@H](C)NC(=O)[C@H](Cc2ccccc2)N(C)C1=O [pd104] ([NMeA]L[NMeL]I[NMeF]A[NMeF][NMeI]T[NMeL]PLD-Piperidide; lactam N-13)
2 | 28.3 | 27.5 | <0.11 10^-6 cm/sec | < 0.11 | CCCCN1CC(=O)N[C@@H](CC(C)C)C(=O)N(C)[C@@H]([C@@H](C)CC)C(=O)N[C@@H](CC)C(=O)N(C)[C@@H]([C@@H](C)O)C(=O)N(C)[C@@H](Cc2ccccc2)C(=O)N[C@@H]([C@@H](C)CC)C(=O)N(C)[C@@H](CC(C)C)C(=O)N[C@H](C(=O)N2CCCCC2)CC(=O)N(C)[C@@H](C)C(=O)N[C@@H](CC(C)C)C(=O)N(C)[C@@H](CC(C)C)C(=O)N(C)[C@@H](Cc2ccccc2)C(=O)N[C@@H](CC)C1=O [pd035] ([NMeA]L[NMeL][NMeF][Abu][NBuGly]L[NMeI][Abu][NMeT][NMeF]I[NMeL]D-Piperidide; lactam N-14)
3 | 34.2 | 30.1 | 0.39 10^-6 cm/sec | 0.39 | CC[C@H](C)[C@@H]1NC(=O)[C@@H]2CCCN2C(=O)[C@H](CC(C)C)N(C)C(=O)[C@H](Cc2ccccc2)N(C)C(=O)[C@H]([C@@H](C)CC)N(C)C(=O)[C@H]([C@@H](C)O)NC(=O)[C@H](Cc2ccccc2)N(C)C(=O)[C@H](CC)N(C)C(=O)[C@H](C(C)C)NC(=O)[C@H](CC)N(C)C(=O)[C@H](CC(C)C)N(C)C(=O)[C@H](C)N(C)C(=O)C[C@@H](C(=O)N2CCCCC2)NC(=O)[C@H](C(C)C)N(C)C1=O [pd002] ([NMeA][NMeL][NMeAbu]V[NMeAbu][NMeF]T[NMeI][NMeF][NMeL]PI[NMeV]D-Piperidide; lactam N-14)

The next lines start with the compound.

Row | SMILES | microsomal CLint at 1 µM [1] [µL/min/mg] | Mouse Hepatic Microsome CLh,int NADPH(-) [1] [µL/min/mg Protein] | Caco2 Papp (10^-6 cm/sec) (Caco-2 cells) | Papp A→B [2] [×10⁻⁶ cm/s]
4 | CC[C@@H]1NC(=O)[C@H]([C@@H](C)O)N(C)C(=O)CCN(C)C(=O)[C@H]([C@@H](C)CC)NC(=O)[C@H](Cc2ccccc2)N(C)C(=O)CN(C)C(=O)C[C@@H](C(=O)N2CCCCC2)NC(=O)[C@H]([C@@H](C)CC)N(C)C(=O)[C@H](COC(C)(C)C)NC(=O)[C@@H]2CCCN2C(=O)[C@H](CCc2ccccc2)NC(=O)[C@H](CC)N(C)C(=O)[C@H](C)NC(=O)[C@H](CC(C)C)N(C)C1=O [pd038] ([Sar][NMeF]I[NMeβAla][NMeT][Abu][NMeL]A[NMeAbu][hPhe]PS(tBu)[NMeI]D-Piperidide; lactam N-14) | 12 | 18.1 | 0.04 10^-6 cm/sec | 0.04
5 | CC[C@@H]1NC(=O)[C@H](CC(C)C)N(C)C(=O)[C@H](COC(C)(C)C)NC(=O)[C@H]([C@@H](C)CC)N(C)C(=O)[C@H](CCc2ccccc2)NC(=O)[C@H](Cc2ccccc2)N(C)C(=O)[C@H]([C@@H](C)CC)NC(=O)[C@H](CC(C)C)N(C)C(=O)[C@H](CC(C)C)N(C)C(=O)CCN(C)C(=O)C[C@@H](C)N(C)C(=O)CN(C)C(=O)[C@H](CC(C)C)N(C)C(=O)[C@@H]2CCCN2C1=O [pd066] (cyclo([Abu]P[NMeL][Sar][NMedβ3hAla][NMeβAla][NMeL][NMeL]I[NMeF][hPhe][NMeI]S(tBu)[NMeL])) | 38.9 | 36.4 | 0.33 10^-6 cm/sec | 0.33
6 | CC[C@@H]1NC(=O)[C@H](C(C)C)N(C)C(=O)[C@H](C)N(C)C(=O)[C@H](Cc2ccccc2)N(C)C(=O)[C@H](CC(C)C)NC(=O)[C@H](Cc2ccccc2)N(C)C(=O)[C@H](C(C)C)NC(=O)[C@H](CC(C)C)N(C)C(=O)[C@H]([C@@H](C)CC)NC(=O)[C@H](CC(C)C)N(C)C(=O)CN(C)C(=O)C[C@@H](C(=O)N2CCCCC2)N(C)C(=O)CNC(=O)[C@H](C)N(C)C1=O [pd080] ([Sar][NMeL]I[NMeL]V[NMeF]L[NMeF][NMeA][NMeV][Abu][NMeA]G[NMeD]-Piperidide; lactam N-14) | 29.3 | 27.8 | 0.25 10^-6 cm/sec | 0.25
